Data set [1] has as its system drug-resistant colon tumor xenografts. The note with it: all surviving mice; cited from earlier work.
In a further data set the test system is CD133+ PPT2 cells. The format is cell-based, human. How it is done: (§1) The CSC-specific cytotoxic effects were studied in two different settings both of which are known to maintain/promote sternness phenotype: adherent to type I collagen cultures and 3D cultures of floating spheroids (Baretton, G. B. 1994; Miyoshi, Y. 2000; Koivisto, P. 1995). The CD133^high/CD44^high cells (1×10^3 cells/well) isolated either from PPT2 or PC3MM2 cell lines were seeded onto the type I collagen-coated 96-well plates, cultured in the MSCGM for 2 days, and the treatment was initiated upon 90% confluency. Paclitaxel, SBT-1214 and CMC2.24 were dissolved in sterile DMSO and then serially diluted in MSCGM. For testing the SBT-1214/CMC2.24 combination efficacy, the regular MSCGM was replaced with treatment medium containing SBT-1214 or Ptx at selected concentration range (from 10 nM to 10 μM) with 30 μM CMC2.24. Treatment medium was removed 24, 48 or 72 hr later, followed by return to the MSCGM. Cell death was analyzed on adherent type I collagen cell cultures with the MTT assay [MTT=3-(4,5-dimethylthiazol-2-yl)-2,5-diphenyltetrazolium bromide] as recommended by manufacturer (Invitrogen). Spheroids were cultured and treated on ULA plates.
(§2) The dose-response cytotoxicity of SBT-1214, CMC2.24/and their combination was evaluated by standard MTT assay (all of the in vitro experiments were repeated at least three times and each measurement for the MMT assay was performed in 4 repeats). The dose-response points were plotted as a percentage of the untreated control, the absorbance of which was considered as 100%. Data were expressed as means±SD for each drug concentration. The in vivo responses to drug treatment were evaluated as changes in tumor volume of drug-treated versus untreated control xenografts induced by particular type of cells. Data were expressed as means±SD for control and drug treated tumors. The statistical significance of differences was determined using Student's t-test. The parameters used were the two-tailed distribution and the paired test. P<0.05 was considered statistically significant.

Another data set deals with PC3MM2-induced tumors. The data set is described as follows: Residual tumors after treatment, viable cells and ex vivo colonies, PC3MM2. In kind it is in vivo, NOD/SCID mice. The note with it: 40, 20, 20, 20 mg/kg weekly, one week after last treatment. The procedure: (§3) Animals were handled according to protocols that have been approved by the Institutional Animal Care and Use committee of the Stony Brook University. The staff of veterinarians provided veterinary care. The SBT-1214 was administered intravenously (40, 20, 20, 20 mg/kg; weekly) to 6-weeks old NOD/SCID mice. Treatment was started 2-3 weeks after transplantation of the tumor cells, when tumor xenografts reached ˜100 mm^3. Systemic toxicity in NOD/SCID mice was closely monitored and evaluated by standard criteria (motor activity, morbidity, appetite, posture and appearance). One week after the last treatment, all residual tumors were harvested and analyzed histopathologically and for ex vivo clonogenic capacity. One part of each mouse tumor xenograft was snap-frozen in embedding matrix (Lipshaw) and kept at −80° C. before immunohistochemical analysis at standard conditions. […] Ability to induce the round colonies (holoclones) was also determined before and after drug treatment. Cells were counted and plated on 48-well plates at a final count of 300 cells per well. One week after initiation, the plates were inspected for colony growth and the number of colonies within each well was quantified by phase contrast microscopy. After drug treatment, one portion of cells which survived particular treatment regimen was placed at 3D and adherent culture conditions and analyzed. […]

The test system of another data set is PPT2-induced tumors. As to the kind of experiment: Residual tumors after treatment, viable cells and ex vivo colonies, PPT2. The format is in vivo, NOD/SCID mice. The note with it: 40, 20, 20, 20 mg/kg weekly, one week after last treatment. The procedure: as §3
In data set [2] the test system is PPT2 and PC3MM2 floating spheroids. The data set is described as follows: Sphere formation assay after drug treatment. In kind it is cell-based, human. The note with it: 1 μM, 24 hours. How it is done:
In order to obtain prostate cancer spheroids, MACS-CD133 and MACS-CD44 (Miltenyi Biotec, CA) or FACS sorted CD133^high/CD44^high cells were seeded at low numbers on ULA plates (1,000 cells per 6-well plate or 5-10,000 cells per 75 mm flasks) in MSCGM or SPCM. For evaluation of the clonogenic/sphere-forming capacity, cells were counted with Cellometer Auto T4 (Nexcelom Bioscience LLC, MA), resuspended in 1:4 type I collagen/SPCM or 1:4 Matrigel/MSGM and known cell numbers were plated on ULA plates. One week after initiation plates were inspected for floating sphere growth and compact well-shaped spheroids were counted. Spheroids were serially passaged by gentle dissociation and mixing with a new Matrigel/MSGM or type I collagen/SPCM, or reseeded on 48-well plates for final count of 5-10 spheres per well for further propagation and analysis.

The test system of data set [3] is PPT2 and PC3MM2 cell lines. As to the kind of experiment: FACS analysis of CD133 expression after drug treatment. The format is cell-based, human. The note with it: 10 nM to 10 μM, 24 hours, concentration-dependent.
Text: To ensure more reliable isolation of CSCs, cells were labeled with one or several markers conjugated with different fluorescent dyes, including anti-human CD133/2-APC (clone 293C3; Miltenyi Biotec, CA, USA); CD166-PE (clone 105902; R&D Systems, MN, USA); CD44-FITC (clone F10-44-2), CD44-PE (clone F10-44-2; Invitrogen/Biosources, USA); CD44v6-FITC (clone 2F10; R&D Systems, USA), EpCAM-FITC (Biosource, CA, USA), Pan-Keratin (C11)-Alexa Fluor® 488 (Cell Signaling) and all the isotype controls (Chemicon). Antibodies were diluted in buffer containing 5% BSA, 1 mM EDTA and 15-20% blocking reagent (Miltenyi Biotec) to inhibit unspecific binding to non-target cells. After 15 min incubation at 4° C., stained cells were sorted and analyzed with multiparametric flow cytometer BD FACSAria (Becton Dickinson, CA). Alternatively, dissociated cells were centrifuged at 950 g for 5 min at 4° C., rinsed with sterile MACS buffer (Miltenyi Biotec, CA) and labeled with CD133 Abs directly or indirectly conjugated with ferromagnetic beads (Miltenyi Biotec, CA) as recommended by manufacturer.
as §1, with “For testing the SBT-1214/CMC2.24 combination efficacy, the regular MSCGM was replaced with treatment medium containing SBT-1214 or Ptx at selected concentration range (from 10 nM to 10 μM) with 30 μM CMC2.24. Treatment medium was removed 24, 48 or 72 hr later, followed by return to the MSCGM.” left out, “Spheroids were cultured and treated on ULA plates.” left out

The next data set has as its system c-Myc, Sox-2 and Oct4. The data set is described as follows: Western blot of key transcription factors. The format is cell-based, human. The note with it: nuclear extracts of CD133+ and bulk PPT2 cells. The procedure: Cells were lysed using Active Motif Nuclear Co-ip kit according to manufacturer's protocol. 20 μg of enriched nuclear and cytoplasmic extracts was subjected to electrophoresis in 10% polyacrylamide gel. The proteins were then transferred to a nitrocellulose membrane and developed with appropriate antibodies.

The nature of data set [4]: Systemic toxicity in tumor-bearing mice. In kind it is in vivo, NOD/SCID mice. How it is done:
as §3

The subject of data set [5] is prostate CD133+ cells (PPT2 and PC3MM2). As to the kind of experiment: MTT cytotoxicity assay, results stated for prostate CD133+ cells without split by line. In kind it is cell-based, human. The note with it: 48-72 hours, 10 nM to 10 μM, stated as up to. The procedure: as §1, §2

Structures are written as SMILES.

Turning to `CC(=O)O[C@@]12CO[C@@H]1C[C@H](O)[C@@]1(C)C(=O)[C@H](OC(=O)C3CC3)C3=C(C)[C@@H](OC(=O)[C@H](O)[C@H](C=C(C)C)NC(=O)OC(C)(C)C)C[C@@](O)([C@@H](OC(=O)c4ccccc4)[C@H]21)C3(C)C` [SBT-1214], the tumor regression result in data set [1] is listed as “complete regression”. For the same compound, in the data set on CD133+ PPT2 cells (100 nM-1 μM versus 10 μM, 48-72 hours), the “cytotoxicity at lower concentrations compared to 10 μM” value is listed as “higher cytotoxicity”. Further, the cell death result in the data set on CD133+ PPT2 cells (72 hours, 10 nM-10 μM, stated as up to) is on record as “up to 65%”. Besides, the “residual tumors without viable cells and without colonies in culture” value with PC3MM2-induced tumors is on record as “three of six”; in the data set with PPT2-induced tumors it was “Four of six”. Moreover, the “ability to induce secondary 3D spheroids or collagen-adherent colonies” value in [2] is “lost their ability to induce both secondary 3D spheroids”. In addition, the “ratios of cells with highest expression of CD133” value in data set [3] is “increased the ratios”. In addition, in the data set on c-Myc, Sox-2 and Oct4, the “c-Myc and Sox2 expression” value was “moderate down-regulation”. Also, the systemic toxicity entry is recorded as “much lower systemic toxicity” in data set [4] (40, 20, 20, 20 mg/kg weekly) and “all mice expressed common signs of systemic toxicity” in data set [4] (40, 40, 40 mg/kg weekly). Further, in [5], the “CD133+ cells killed” value is recorded as “up to 60%”.

Values taken from patent publication US9675576B2, “Polyenolic zinc-binding agents (pezbins) actively promote inactivation of cancer stem cells and potentiate cytotoxic anti-tumor drug substances” (The Research Foundation for The State University of New York, priority 2012, dated 2017).
